Experimental data reported in patent US20120022024A1, “ANTI-BACTERIAL COMPOSITIONS AND METHODS INCLUDING TARGETING VIRULENCE FACTORS OF STAPHYLOCOCCUS AUREUS” (priority 2009, published 2012).
Structures can show the parent of a compound that is named as a salt. Where two headings read alike, the source gives them in different places.

Columns and labels:
[1] = target: S. aureus CrtM (dehydrosqualene synthase) (Staphylococcus aureus, UniProt A9JQL9); assay: CrtM enzyme inhibition assay
[2] = target: T1, human squalene synthase (hSQS) (Homo sapiens, UniProt P37268); assay: Human SQS enzyme inhibition assay; assay type: biochemical; conditions: for CrtM/hSQS selectivity: IC50(hSQS)/IC50(CrtM); for pIC50 (CrtM) − pIC50 (hSQS): experimental data; for relative CrtM/hSQS selectivity: selectivity of compound/selectivity of 1; for IC50: Table 8
T1 construct: a double truncated protein lacking residues 31 at the N-terminus and 46 at the C-terminus; six-histidine tag (pET-28a) (N); made in house; host or cells: E. coli BL21 (DE3) RP
T1 sequence (P37268 31-370 limits assumed): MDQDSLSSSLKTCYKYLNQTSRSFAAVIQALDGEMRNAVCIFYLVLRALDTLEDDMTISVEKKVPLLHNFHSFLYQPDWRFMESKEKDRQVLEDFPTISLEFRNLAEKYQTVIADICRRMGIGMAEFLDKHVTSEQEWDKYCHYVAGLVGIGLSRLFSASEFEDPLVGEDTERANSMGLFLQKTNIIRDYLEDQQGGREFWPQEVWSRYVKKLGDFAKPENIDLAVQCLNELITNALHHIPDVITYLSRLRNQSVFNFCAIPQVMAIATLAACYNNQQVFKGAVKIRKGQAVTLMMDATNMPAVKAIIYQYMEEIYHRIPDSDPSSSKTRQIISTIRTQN
Method: The corresponding amplified insert was initially cloned in the vector pGEMT® (Promega). Plasmid was digested with the endonucleases NdeI and BamHI, and the resulting fragment was cloned into the bacterial expression vector pET-28a to give pET28a-HsSQS which was used to transform E. coli BL21 (DE3) RP strain (Novagen) for overexpression.
Bacteria expressing the constructs were cultured in Luria-Bertani medium supplemented with kanamycin (30 μg/ml) and chloramphenicol (34 μg/ml) at 37° C., until the cells reached an OD of 0.4 at 600 nm, and were then induced at 37° C. for 4 h by incubation with 1 mM isopropyl-1-thio-β-D-galactopyranoside. Cells were harvested by centrifugation (10 min, 4000 rpm) and resuspended in 10 ml of lysis/elution buffer (20 mM […], pH 7.4, 10 mM CHAPS, 2 mM MgCl2, 10% glycerol, 10 mM—mercaptoethanol, 500 mM NaCl, 10 mM imidazole, and a protease inhibitor cocktail (Roche), disrupted by sonication, and centrifuged at 16,000 rpm for 30 min. The supernatant ([…]) was then applied to a HiTrap Nickel-Chelating HP column (Amersham Biosciences). Enzyme purification was performed according to the manufacturer's instructions using a Pharmacia FPLC system. Unbound protein was washed off with 50 mM imidazole, then the His6-HsSQS was eluted with 1M imidazole.
SQS activity was based on measuring the conversion of [3H]FPP to [3H]squalene. […] The region of the squalene band was scraped and immersed in Hydrofluor liquid scintillation fluid, and assayed for radioactivity. IC50 values were calculated from the hyperbolic plot of percent of inhibition versus inhibitor concentration, using GraphPad PRISM®.

[3] = tested on: staphyloxanthin (STX) biosynthesis in S. aureus; assay: Staphyloxanthin biosynthesis inhibition assay; assay type: cell-based, Staphylococcus aureus
Method: The question next arises: how potent are these compounds in inhibiting STX biosynthesis in S. aureus? We thus treated S. aureus bacteria with serially diluted compounds at 37° C. for 3 days, after which the STX pigment was extracted with methanol. Optical densities were measured at 450 nm and IC50 values for inhibition of pigment formation for each compound were calculated using a standard dose-response curve. The rank ordered IC50 values of the 38 compounds investigated are shown in Table 7 and dose-response curves of representative compounds are shown in FIG. 2.
The S. aureus strain used was the WT clinical isolate (Pig1) (4). S. aureus was cultured in THB (1 mL) in the presence of inhibitor compounds for 72 h, in duplicate. Cells were then centrifuged and washed twice with PBS. STX was extracted with MeOH and the O.D. was determined at 450 nm using a Perkin Elmer MBA 2000 (Norwalk, Conn.) spectrophotometer.

S. aureus [4] = conditions: non-pigmented S. aureus after treatment versus normally pigmented; cited from earlier work
S. aureus [5] = conditions: treated mice compared to a control group; cited from earlier work
S. aureus [6] = conditions: non-pigmented S. aureus after treatment versus normally pigmented; cited from earlier work; remark: listed apart in the source
[7] = read-out: CrtM enzyme experimental activity IC50, Table 5
[8] = Staphylococcus aureus, 72 h, read-out: Staphyloxanthin IC50
[9] = Staphylococcus aureus, read-out: IC50 (STX)
[10] = Staphylococcus aureus, read-out: IC50(STX)
[11] = Staphylococcus aureus, read-out: IC50 for STX biosynthesis
[12] = read-out: CrtM IC50 values, Table 4
[13] = Table 7, S. aureus, 37° C., 3 days, read-out: Staphyloxanthin IC50

Chain of S. aureus CrtM (dehydrosqualene synthase) (A9JQL9 whole entry): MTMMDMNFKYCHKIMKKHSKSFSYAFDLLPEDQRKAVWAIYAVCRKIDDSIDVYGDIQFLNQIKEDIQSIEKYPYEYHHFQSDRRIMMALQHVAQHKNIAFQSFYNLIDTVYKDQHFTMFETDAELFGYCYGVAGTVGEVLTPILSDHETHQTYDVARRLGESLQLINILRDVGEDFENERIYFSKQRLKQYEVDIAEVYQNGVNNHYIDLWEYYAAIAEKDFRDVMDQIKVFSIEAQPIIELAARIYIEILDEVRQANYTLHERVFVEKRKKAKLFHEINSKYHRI

## O=P([O-])([O-])C(CCCc1ccc(-c2ccc(C(F)(F)F)cc2)cc1)P(=O)([O-])[O-].[K+].[K+].[K+].[K+] [Compound 3]
[1]; Table 5
  CrtM enzyme experimental activity pIC50: 6.74
[2]
  CrtM/hSQS selectivity: 0.014
  pIC50 (CrtM) − pIC50 (hSQS): −1.86
  relative CrtM/hSQS selectivity: 4.8

## O=P([O-])([O-])C(Cc1cccc(Oc2ccccc2)c1)S(=O)(=O)[O-].[K+].[K+].[K+] (stereo not shown) [Compound 14, 1-Phosphono-2-(3-phenoxyphenyl)ethylsulfonic acid tripotassium salt]
[1]; [7]
  IC50: 1700 µM
[3]; [8]
  IC50: 33.9 µM
[2]
  CrtM/hSQS selectivity: 0.0022
  IC50: 3.7 µM
  pIC50 (CrtM) − pIC50 (hSQS): −2.66
  relative CrtM/hSQS selectivity: 0.8

## O=P([O-])([O-])C(CCCc1cccc(Oc2ccccc2)c1)S(=O)(=O)[O-].[K+].[K+].[K+] (stereo not shown) [Compound 1, 1-Phosphono-4-(3-phenoxyphenyl)butylsulfonic acid tripotassium salt, reference compound]
S. aureus [4]
  susceptibility to killing by hydrogen peroxide: much more susceptible to killing by hydrogen peroxide
[1]; read-out: IC50 against CrtM
  IC50: 7.9 µM
[3]; [8]
  IC50: 0.11 µM
[3]; [9]
  IC50: 0.11 µM
[3]; [10]
  IC50: 0.11 µM
[3]; [11]
  IC50: 0.11 µM
S. aureus [5]
  bacterial counts in kidneys reduced / bacterial growth inhibited: 98%
S. aureus [6]
  survival in freshly isolated human whole blood: less able to survive in freshly isolated human whole blood

## O=P([O-])([O-])C(CCc1cccc(Oc2ccccc2)c1)S(=O)(=O)[O-].[K+].[K+].[K+] (stereo not shown) [Compound 15, 1-Phosphono-3-(3-phenoxyphenyl)propylsulfonic acid tripotassium salt]
[1]
  IC50: > 500 µM
[1]; Table 5
  CrtM enzyme experimental activity pIC50: 3.3
[1]; [7]
  IC50: 500 µM
[3]; [8]
  IC50: 20.4 µM
[2]
  CrtM/hSQS selectivity: 0.0011
  IC50: 0.55 µM
  pIC50 (CrtM) − pIC50 (hSQS): −2.96
  relative CrtM/hSQS selectivity: 0.4

## O=P([O-])([O-])C(CCCc1ccc(-c2ccc(C(F)(F)F)cc2)cc1)P(=O)([O-])[O-].[K+].[K+].[K+].[K+] [Compound 3, 4-[4-(4-Trifluoromethylphenyl)phenyl)]butyldiphosphonic acid dipotassium salt]
[1]
  Ki: ~0.0005 µM
[1]; [7]
  IC50: 0.18 µM
[1]; read-out: IC50 against CrtM
  IC50: 0.2 µM
[3]; [8]
  IC50: 1.1 µM
[2]
  IC50: 0.003 µM

## 1-Phosphono-4-[3-(2-trifluoromethylphenoxy)phenyl]butylsulfonic acid tripotassium salt [Compound 23]
[1]; Table 5
  CrtM enzyme experimental activity pIC50: 4.27
[1]; [12]
  IC50: 53.7 µM
[1]; [7]
  IC50: 53.7 µM
[3]; [13]
  IC50: 0.46 µM

## CP(=O)([O-])C(CCCc1ccc(-c2ccccc2)cc1)P(=O)([O-])[O-].[K+].[K+].[K+] (stereo not shown) [Compound 4]
[2]
  CrtM/hSQS selectivity: 0.014
  relative CrtM/hSQS selectivity: 4.7

## O=C(CP(=O)(O)O)NCCCc1cccc(Oc2ccccc2)c1 [compound 830]
[1]
  IC50: 8.9 µM
[3]; [10]
  IC50: 0.008 µM

## CC(C)(C(=O)NCCCc1cccc(Oc2ccccc2)c1)P(=O)(O)O [compound 847]
[1]
  IC50: 204 µM
[3]; [10]
  IC50: > 500 µM

## CCCc1ccc(Oc2cccc(CCCC(P(=O)([O-])[O-])S(=O)(=O)[O-])c2)cc1.[K+].[K+].[K+] (stereo not shown) [Compound 6, 1-Phosphono-4-[3-(4-propylphenoxy)phenyl]butylsulfonic acid tripotassium salt]
[1]
  Ki: ~0.005 µM
[1]; fold more active, versus 1
  as active as 1 in CrtM inhibition: ~4 ×
[1]; read-out: IC50 (CrtM), Table 1
  IC50: 2.2 µM
[3]; [8]
  IC50: 0.093 µM
[3]; [9]
  IC50: 0.1 µM
[3]; [11]
  IC50: 0.093 µM

## O=P(O)(O)C(CCCc1cccc(Cc2ccccc2)c1)S(=O)(=O)O (stereo not shown) [Compound 17, 1-Phosphono-4-(3-benzylphenyl)butylsulfonic acid tripotassium salt]
[1]; [7]
  IC50: 20.4 µM
[3]; [8]
  IC50: 0.17 µM

## O=C(CP(=O)(O)O)N(O)CCCc1cccc(Oc2ccccc2)c1 [compound 808]
[1]
  IC50: 67.5 µM
[3]; [10]
  IC50: 0.108 µM
[3]; Staphylococcus aureus, read-out: IC50(STX), cell activity
  IC50: 0.11 µM

## O=C(CCCCc1ccc(Oc2ccccc2)cc1)CP(=O)(O)O [compound 839]
[1]
  IC50: 1520 µM
[3]; [10]
  IC50: 28 µM

## O=P([O-])([O-])C(CCCc1cccc(Oc2ccccc2Cc2ccccc2)c1)S(=O)(=O)[O-].[K+].[K+].[K+] (stereo not shown) [Compound 8, 1-Phosphono-4-[3-(2-benzylphenoxy)phenyl]butylsulfonic acid tripotassium salt]
[1]; Table 5
  CrtM enzyme experimental activity pIC50: 4.43
[1]; fold, versus 1
  less active than 1 in CrtM inhibition: ~5 ×
[3]; [8]
  IC50: 0.019 µM

## O=P(O)(O)C(CCCc1cccc(Oc2ccc(Cc3ccccc3)cc2)c1)S(=O)(=O)O (stereo not shown) [Compound 26, 1-Phosphono-4-[3-(4-benzylphenoxy)phenyl]butylsulfonic acid tripotassium salt]
[1]; read-out: IC50 (CrtM), Table 1
  IC50: 13.5 µM
[3]; [8]
  IC50: 0.049 µM
[3]; [9]
  IC50: 0.049 µM

## 1-Phosphono-4-[3-(3,4-difluorophenoxy)phenyl]butylsulfonic acid tripotassium salt [Compound 30]
[1]; Table 5
  CrtM enzyme experimental activity pIC50: 5.76
[1]; [12]
  IC50: 1.7 µM
[1]; [7]
  IC50: 1.7 µM
[3]; [13]
  IC50: 0.11 µM
